In patent US6593319B1, “Fusidic acid derivatives” (Leo Pharmaceutical Products, Ltd. A/S, priority 2001, dated 2003):

Legend:
N. meningitidis/K1 = experiment: MIC, microtitter plates, liquid medium containing broth; type: cell-based
Procedure: (§1) In vitro investigations have evidenced high potency of compounds of the invention against several bacteria including staphylococci, streptococci, corynebacteriae and mycobacteriae. […] The biological tests are conducted on microtitter plates using liquid medium containing broth.

Streptococcus - gr.C/68 = experiment: as above; type: cell-based
Procedure: as §1

S. aureus/ATCC 29213 = experiment: as above; type: cell-based; details: FusS, MSSA
Procedure: as §1

M. tuberculosis/R 498 = experiment: as above; type: cell-based
Procedure: as §1

S. aureus/54 USA-br = experiment: as above; type: cell-based; details: FusR, MSSA
Procedure: as §1

Streptococcus - gr.B/61 = experiment: as above; type: cell-based
Procedure: as §1

Staphylococcus/291-2 = experiment: as above; type: cell-based; details: Staphylococcus/291-2, coagulase negative, FusS
Procedure: as §1

[1] = tested on: Streptococcus - gr.A/67011; experiment: as above; type: cell-based
Procedure: as §1

[2] = tested on: E. faecalis/V583 P. Cour.; experiment: as above; type: cell-based; details: VanR
Procedure: as §1

Staphylococcus/379-2 = experiment: as above; type: cell-based; details: Staphylococcus/379-2, coagulase negative, FusR
Procedure: as §1

P. acnes/1060 = experiment: as above; type: cell-based
Procedure: as §1

C. diphteria/62001 = experiment: as above; type: cell-based
Procedure: as §1

S. aureus/22 DK = experiment: as above; type: cell-based; details: FusS, MSSA
Procedure: as §1

Streptococcus - gr.G/59 = experiment: as above; type: cell-based
Procedure: as §1

S. aureus/1 Aus-pe = experiment: as above; type: cell-based; details: FusS, MRSA
Procedure: as §1

N. gonorrhoea/C1 = experiment: as above; type: cell-based
Procedure: as §1

S. aureus Leoid CJ234(R) = experiment: MIC, agar diffusion method (European Pharmacopoeia 3rd Ed.); type: cell-based; details: MRSA and Rifampicin resistant
Procedure: (§2) The antibacterial activity of some of these compounds relative to fusidic acid appears from Table 2 showing MIC values for compounds of the invention. The method used is recommended by the European Pharmacopoeia 3rd Ed. (1997) for testing the potency of antibiotics. It is an agar diffusion method where the same volume of the tested solution is added to cavities in agar. The inhibition zones are a function of the concentration of the fusidic acid analogue used. All assays are run with fusidic acid (1) as the reference substance. The results in Table 2 differ from those of Table 1 due to the different experimental methods used.

S. aureus Leo id. CJ232 = experiment: as above; type: cell-based; details: S. aureus Leo id. CJ232, MRSA
Procedure: as §2

S. aureus ATCC2977 = experiment: as above; type: cell-based
Procedure: as §2

[3] = tested on: Strep. faecalis ATCC10541; experiment: as above; type: cell-based
Procedure: as §2

[4] = tested on: Strep. sp. Gr.B Leo id. EF6; experiment: as above; type: cell-based
Procedure: as §2

[5] = tested on: Strep. faecium Leo id. E119(P); experiment: as above; type: cell-based; details: Penicillin resistant
Procedure: as §2

S. aureus ATCC6538P = experiment: as above; type: cell-based
Procedure: as §2

[6] = tested on: Strep. epidermis A. ATCC12228; experiment: as above; type: cell-based
Procedure: as §2

[7] = Stability in ethanol solution (retained activity); type: physicochemical; details: solution in ethanol stored at 0° C. for 1 month

Compound	MIC values (concentrations in μg/ml required for 90% inhibition) (S. aureus Leoid CJ234(R))	MIC values (concentrations in μg/ml required for 90% inhibition) (S. aureus Leo id. CJ232)	MIC values (concentrations in μg/ml required for 90% inhibition) (S. aureus ATCC2977)	MIC values (concentrations in μg/ml required for 90% inhibition) [3]	MIC values (concentrations in μg/ml required for 90% inhibition) [4]	MIC values (concentrations in μg/ml required for 90% inhibition) [5]	MIC values (concentrations in μg/ml required for 90% inhibition) (S. aureus ATCC6538P)	MIC values (concentrations in μg/ml required for 90% inhibition) [6]	also measured
CC(=O)OC1CC2(C)C(CC(O)C3C4(C)CCC(O)C(C)C4CCC32C)C1C(CCC=C(C)C)C(=O)O [Compound 101, 17(S),20(S)-Dihydrofusidic Acid]	0.001 µg/mL	0.003 µg/mL	0.001 µg/mL	3.7 µg/mL	3.5 µg/mL	1.2 µg/mL	0.002 µg/mL	0.001 µg/mL	MIC values (concentrations in μg/ml required for 90% inhibition) (N. meningitidis/K1): 1 µg/mL; MIC values (concentrations in μg/ml required for 90% inhibition) (Streptococcus - gr.C/68): 4 µg/mL; MIC values (concentrations in μg/ml required for 90% inhibition) (S. aureus/ATCC 29213): 1 µg/mL; MIC values (concentrations in μg/ml required for 90% inhibition) (M. tuberculosis/R 498): 16 µg/mL; MIC values (concentrations in μg/ml required for 90% inhibition) (S. aureus/54 USA-br): 8 µg/mL; MIC values (concentrations in μg/ml required for 90% inhibition) (Streptococcus - gr.B/61): >64 µg/mL; MIC values (concentrations in μg/ml required for 90% inhibition) (Staphylococcus/291-2): 1 µg/mL; MIC values (concentrations in μg/ml required for 90% inhibition) [1]: 64 µg/mL; MIC values (concentrations in μg/ml required for 90% inhibition) [2]: 16 µg/mL; MIC values (concentrations in μg/ml required for 90% inhibition) (Staphylococcus/379-2): 64 µg/mL; MIC values (concentrations in μg/ml required for 90% inhibition) (P. acnes/1060): 0.5 µg/mL; MIC values (concentrations in μg/ml required for 90% inhibition) (C. diphteria/62001): 0.063 µg/mL; MIC values (concentrations in μg/ml required for 90% inhibition) (S. aureus/22 DK): 1 µg/mL; MIC values (concentrations in μg/ml required for 90% inhibition) (Streptococcus - gr.G/59): 8 µg/mL; MIC values (concentrations in μg/ml required for 90% inhibition) (S. aureus/1 Aus-pe): 1 µg/mL; MIC values (concentrations in μg/ml required for 90% inhibition) (N. gonorrhoea/C1): 4 µg/mL; retained initial activity [7]: > 80%
CC(=O)O[C@H]1C[C@@]2(C)[C@@H](C[C@@H](O)[C@H]3[C@@]4(C)CC[C@@H](O)[C@@H](C)[C@@H]4CC[C@@]32C)[C@H]1[C@H](CCCC(C)C)C(=O)O [Compound 102, 17(S),20(S),24,25-Tetrahydrofusidic Acid]	0.009 µg/mL	0.12 µg/mL	0.02 µg/mL	MIC>64 μg/ml	3.4 µg/mL	3.9 µg/mL	0.016 µg/mL	0.015 µg/mL	
CCC(=O)OC1CC2(C)C(CC(O)C3C4(C)CCC(O)C(C)C4CCC32C)C1C(CCC=C(C)C)C(=O)O [Compound 105, 16-Deacetoxy-16β-propionyloxy-17(S),20(S)-dihydrofusidic Acid]	0.063 µg/mL	0.24 µg/mL	0.19 µg/mL	>64 µg/mL	>64 µg/mL	3.9 µg/mL	0.22 µg/mL	0.08 µg/mL	
CC(C)=CCCC(C(=O)O)C1C(OC(=O)C2CCCCC2)CC2(C)C1CC(O)C1C3(C)CCC(O)C(C)C3CCC12C [Compound 113, 16-Deacetoxy-16β-cyclohexylcarbonyloxy-17(S),20(S)-dihydrofusidic acid]	16 µg/mL	16 µg/mL	16 µg/mL	>64 µg/mL	4 µg/mL	>64 µg/mL	16 µg/mL	>64 µg/mL	
CCO[C@H]1C[C@@]2(C)[C@@H](C[C@@H](O)[C@H]3[C@@]4(C)CC[C@@H](O)[C@@H](C)[C@@H]4CC[C@@]32C)[C@H]1[C@H](CCC=C(C)C)C(=O)O [Compound 123, 16-Deacetoxy-16β-ethoxy-17(S),20(S)-dihydrofusidic Acid]	0.007 µg/mL	0.005 µg/mL	0.02 µg/mL	16 µg/mL	16 µg/mL	16 µg/mL	0.02 µg/mL	0.5 µg/mL	
COCO[C@H]1C[C@@]2(C)[C@@H](C[C@@H](O)[C@H]3[C@@]4(C)CC[C@@H](O)[C@@H](C)[C@@H]4CC[C@@]32C)[C@H]1[C@H](CCC=C(C)C)C(=O)O [Compound 128, 16-Deacetoxy-16β-methoxymethoxy-17(S),20(S)-dihydrofusidic acid]	>64 µg/mL	>64 µg/mL	0.19 µg/mL	16 µg/mL	16 µg/mL	16 µg/mL	0.26 µg/mL	0.5 µg/mL	
